{"source": "patent US20100004234A1", "about": "“SPECIFIC KINASE INHIBITORS” (Kosan Biosciences Incorporated, priority 2004, published 2010)", "assay_in_all_cases": "Kinase panel, residual activity", "format_in_all_cases": "biochemical", "details_in_all_cases": "read-out: Percent residual activity", "key": {"[1]": {"target": "ALK(h) (Homo sapiens, UniProt Q9UM73)", "protocol": "(§1) In this panel of 124 kinases, 18 of the 19 kinases identified as having an active site cysteine were inhibited to some extent by hypothemycin at a concentration of 0.2 μM and/or 2 μM."}, "[2]": {"target": "ASK1(h) (Homo sapiens, UniProt Q99683)", "protocol": "as §1"}, "[3]": {"target": "Abl(h) (Homo sapiens, UniProt P00519)", "protocol": "as §1"}, "[4]": {"target": "Aurora-A(h) (Homo sapiens, UniProt O14965)", "sequence (O14965 whole entry)": "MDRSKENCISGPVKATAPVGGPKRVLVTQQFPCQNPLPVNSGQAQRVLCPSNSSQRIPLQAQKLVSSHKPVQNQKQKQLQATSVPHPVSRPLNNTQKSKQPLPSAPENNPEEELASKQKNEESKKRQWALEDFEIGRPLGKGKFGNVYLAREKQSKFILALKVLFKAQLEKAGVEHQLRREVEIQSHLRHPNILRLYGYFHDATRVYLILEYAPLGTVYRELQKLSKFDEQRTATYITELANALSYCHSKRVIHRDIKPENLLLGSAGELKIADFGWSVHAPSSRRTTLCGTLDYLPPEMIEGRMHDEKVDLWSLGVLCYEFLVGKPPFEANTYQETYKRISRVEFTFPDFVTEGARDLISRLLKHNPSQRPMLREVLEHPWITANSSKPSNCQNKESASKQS", "protocol": "as §1"}, "[5]": {"target": "Axl(h) (Homo sapiens, UniProt P30530)", "protocol": "as §1"}, "[6]": {"target": "CDK2/cyclinE(h) (Homo sapiens, UniProt P24941)", "protocol": "as §1"}, "[7]": {"target": "CDK5/p35(h) (Homo sapiens, UniProt Q00535)", "protocol": "as §1"}, "[8]": {"target": "CDK6/cyclinD3(h) (Homo sapiens, UniProt Q00534)", "protocol": "as §1"}, "[9]": {"target": "CK2(h) (Homo sapiens, UniProt P68400)", "protocol": "as §1"}, "[10]": {"target": "DDR2(h) (Homo sapiens, UniProt Q16832)", "protocol": "as §1"}, "[11]": {"target": "EGFR(h) (Homo sapiens, UniProt P00533)", "sequence (P00533 25-1210)": "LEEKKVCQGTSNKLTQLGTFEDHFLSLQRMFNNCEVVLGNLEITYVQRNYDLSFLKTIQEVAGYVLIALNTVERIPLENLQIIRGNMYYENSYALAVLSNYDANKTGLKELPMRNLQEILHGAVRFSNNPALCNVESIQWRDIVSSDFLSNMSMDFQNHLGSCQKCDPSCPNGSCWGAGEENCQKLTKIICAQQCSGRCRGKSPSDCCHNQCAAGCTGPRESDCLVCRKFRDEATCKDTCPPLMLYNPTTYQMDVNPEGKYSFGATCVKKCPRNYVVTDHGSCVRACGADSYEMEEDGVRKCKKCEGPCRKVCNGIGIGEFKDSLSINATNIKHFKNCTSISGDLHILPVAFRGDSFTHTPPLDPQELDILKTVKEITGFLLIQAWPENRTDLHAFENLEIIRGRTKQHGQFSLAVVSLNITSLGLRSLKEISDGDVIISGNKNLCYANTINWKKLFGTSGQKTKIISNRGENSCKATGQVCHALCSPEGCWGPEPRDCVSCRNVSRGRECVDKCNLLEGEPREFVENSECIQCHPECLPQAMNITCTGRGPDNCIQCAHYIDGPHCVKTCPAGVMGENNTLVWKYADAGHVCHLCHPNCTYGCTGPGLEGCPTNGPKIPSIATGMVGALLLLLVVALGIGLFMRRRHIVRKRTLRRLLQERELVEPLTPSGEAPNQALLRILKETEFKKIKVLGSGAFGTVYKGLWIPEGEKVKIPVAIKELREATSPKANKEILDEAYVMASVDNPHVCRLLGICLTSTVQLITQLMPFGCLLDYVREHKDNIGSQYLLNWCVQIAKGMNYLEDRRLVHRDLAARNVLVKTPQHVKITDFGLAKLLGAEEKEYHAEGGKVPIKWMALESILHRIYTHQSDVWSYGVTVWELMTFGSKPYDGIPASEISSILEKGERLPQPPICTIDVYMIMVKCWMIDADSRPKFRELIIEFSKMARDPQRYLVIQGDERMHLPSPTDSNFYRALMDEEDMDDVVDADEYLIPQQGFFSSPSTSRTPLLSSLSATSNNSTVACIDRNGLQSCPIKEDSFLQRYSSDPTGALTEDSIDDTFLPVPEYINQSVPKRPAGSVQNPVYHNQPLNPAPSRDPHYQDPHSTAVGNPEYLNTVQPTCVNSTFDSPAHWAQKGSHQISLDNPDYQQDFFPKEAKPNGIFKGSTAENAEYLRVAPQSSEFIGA", "protocol": "as §1"}, "[12]": {"target": "EphA2(h) (Homo sapiens, UniProt P29317)", "protocol": "as §1"}, "[13]": {"target": "EphB4(h) (Homo sapiens, UniProt P54760)", "protocol": "as §1"}, "[14]": {"target": "ErbB4(h) (Homo sapiens, UniProt Q15303)", "protocol": "as §1"}, "[15]": {"target": "Fes(h) (Homo sapiens, UniProt P07332)", "protocol": "as §1"}, "[16]": {"target": "Flt3(h) (Homo sapiens, UniProt P36888)", "sequence (P36888 27-993)": "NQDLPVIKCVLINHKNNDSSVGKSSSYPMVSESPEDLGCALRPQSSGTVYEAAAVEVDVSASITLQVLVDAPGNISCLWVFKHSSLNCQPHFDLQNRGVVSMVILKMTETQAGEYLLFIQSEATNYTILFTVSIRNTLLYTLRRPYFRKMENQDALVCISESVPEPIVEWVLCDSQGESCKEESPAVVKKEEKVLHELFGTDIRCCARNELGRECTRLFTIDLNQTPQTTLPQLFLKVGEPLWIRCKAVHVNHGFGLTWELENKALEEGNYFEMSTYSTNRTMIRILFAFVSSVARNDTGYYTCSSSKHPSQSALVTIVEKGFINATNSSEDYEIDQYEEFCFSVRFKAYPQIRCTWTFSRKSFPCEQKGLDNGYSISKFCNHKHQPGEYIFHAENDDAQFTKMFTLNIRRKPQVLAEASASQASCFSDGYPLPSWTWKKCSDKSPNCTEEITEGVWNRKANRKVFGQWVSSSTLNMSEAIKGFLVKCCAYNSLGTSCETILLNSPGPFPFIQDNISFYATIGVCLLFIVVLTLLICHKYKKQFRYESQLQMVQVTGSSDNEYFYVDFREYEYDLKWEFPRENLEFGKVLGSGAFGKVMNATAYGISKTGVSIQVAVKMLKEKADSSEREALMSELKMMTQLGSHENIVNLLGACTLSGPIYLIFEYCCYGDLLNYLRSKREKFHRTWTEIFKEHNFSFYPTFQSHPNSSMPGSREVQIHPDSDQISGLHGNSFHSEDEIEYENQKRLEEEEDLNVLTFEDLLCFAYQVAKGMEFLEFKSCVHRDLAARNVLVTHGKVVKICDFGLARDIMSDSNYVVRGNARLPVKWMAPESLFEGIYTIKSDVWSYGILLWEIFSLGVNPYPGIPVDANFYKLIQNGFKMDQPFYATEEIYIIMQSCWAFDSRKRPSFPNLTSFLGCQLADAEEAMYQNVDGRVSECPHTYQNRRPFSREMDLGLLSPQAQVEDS", "protocol": "as §1"}, "[17]": {"target": "JNK1α1(h) (Homo sapiens, UniProt P45983)", "protocol": "as §1"}, "[18]": {"target": "Lyn(h) (Homo sapiens, UniProt P07948)", "sequence (P07948 whole entry)": "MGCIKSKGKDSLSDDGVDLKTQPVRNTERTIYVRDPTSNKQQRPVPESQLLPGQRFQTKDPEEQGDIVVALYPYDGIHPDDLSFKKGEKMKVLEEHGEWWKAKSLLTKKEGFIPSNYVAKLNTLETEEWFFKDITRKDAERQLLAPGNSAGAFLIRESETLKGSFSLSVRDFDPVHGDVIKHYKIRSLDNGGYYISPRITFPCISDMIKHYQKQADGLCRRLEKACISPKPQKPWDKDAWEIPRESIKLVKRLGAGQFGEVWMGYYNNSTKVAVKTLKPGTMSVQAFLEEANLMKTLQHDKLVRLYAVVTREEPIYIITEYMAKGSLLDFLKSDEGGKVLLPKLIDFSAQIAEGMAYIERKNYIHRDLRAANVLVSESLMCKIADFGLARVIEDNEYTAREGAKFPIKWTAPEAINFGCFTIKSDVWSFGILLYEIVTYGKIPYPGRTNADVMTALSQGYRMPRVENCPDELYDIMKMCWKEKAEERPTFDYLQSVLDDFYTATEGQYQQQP", "protocol": "as §1"}, "[19]": {"target": "MAPK1(h) (Homo sapiens, UniProt P27361)", "protocol": "as §1"}, "[20]": {"target": "MAPK2(h) (Homo sapiens, UniProt P28482)", "sequence (P28482 whole entry)": "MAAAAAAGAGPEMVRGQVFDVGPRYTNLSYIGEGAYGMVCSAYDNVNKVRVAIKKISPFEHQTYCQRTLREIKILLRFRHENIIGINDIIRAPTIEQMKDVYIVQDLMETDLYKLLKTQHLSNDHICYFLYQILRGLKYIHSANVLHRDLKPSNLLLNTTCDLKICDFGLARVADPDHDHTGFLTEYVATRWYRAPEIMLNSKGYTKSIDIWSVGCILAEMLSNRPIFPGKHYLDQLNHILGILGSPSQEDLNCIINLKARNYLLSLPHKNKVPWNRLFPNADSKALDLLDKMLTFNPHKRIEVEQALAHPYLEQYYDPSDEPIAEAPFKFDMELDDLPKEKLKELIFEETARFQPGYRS", "protocol": "as §1"}, "[21]": {"target": "MEK1(h) (Homo sapiens, UniProt Q02750)", "protocol": "as §1"}, "[22]": {"target": "MINK(h) (Homo sapiens, UniProt Q8N4C8)", "protocol": "as §1"}, "[23]": {"target": "MKK6(h) (Homo sapiens, UniProt P52564)", "sequence (P52564 whole entry)": "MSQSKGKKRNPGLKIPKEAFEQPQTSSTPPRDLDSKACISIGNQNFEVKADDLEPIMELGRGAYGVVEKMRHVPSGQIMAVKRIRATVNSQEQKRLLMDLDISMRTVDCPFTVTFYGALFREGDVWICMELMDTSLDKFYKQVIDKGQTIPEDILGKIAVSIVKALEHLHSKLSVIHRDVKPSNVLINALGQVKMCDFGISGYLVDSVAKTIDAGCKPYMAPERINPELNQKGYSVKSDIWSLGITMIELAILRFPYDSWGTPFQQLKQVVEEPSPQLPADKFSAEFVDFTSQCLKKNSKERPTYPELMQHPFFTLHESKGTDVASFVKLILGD", "protocol": "as §1"}, "[24]": {"target": "MSK2(h) (Homo sapiens, UniProt O75676)", "protocol": "as §1"}, "[25]": {"target": "NEK6(h) (Homo sapiens, UniProt Q9HC98)", "protocol": "as §1"}, "[26]": {"target": "NEK7(h) (Homo sapiens, UniProt Q8TDX7)", "sequence (Q8TDX7 whole entry)": "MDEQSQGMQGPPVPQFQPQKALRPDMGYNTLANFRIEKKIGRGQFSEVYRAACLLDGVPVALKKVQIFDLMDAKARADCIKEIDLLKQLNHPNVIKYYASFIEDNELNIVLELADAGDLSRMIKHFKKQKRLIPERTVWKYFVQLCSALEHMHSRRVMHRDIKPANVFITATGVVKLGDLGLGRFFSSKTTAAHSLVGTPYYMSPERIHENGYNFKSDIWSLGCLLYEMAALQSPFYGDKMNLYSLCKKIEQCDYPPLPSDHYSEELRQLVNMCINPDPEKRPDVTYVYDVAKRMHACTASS", "protocol": "as §1"}, "[27]": {"target": "PAK4(h) (Homo sapiens, UniProt O96013)", "protocol": "as §1"}, "[28]": {"target": "PKA(h) (Homo sapiens, UniProt P17612)", "protocol": "as §1"}, "[29]": {"target": "PKBα(h) (Homo sapiens, UniProt P31749)", "protocol": "as §1"}, "[30]": {"target": "PKBγ(h) (Homo sapiens, UniProt Q9Y243)", "protocol": "as §1"}, "[31]": {"target": "PKCμ(h) (Homo sapiens, UniProt Q15139)", "sequence (Q15139 whole entry)": "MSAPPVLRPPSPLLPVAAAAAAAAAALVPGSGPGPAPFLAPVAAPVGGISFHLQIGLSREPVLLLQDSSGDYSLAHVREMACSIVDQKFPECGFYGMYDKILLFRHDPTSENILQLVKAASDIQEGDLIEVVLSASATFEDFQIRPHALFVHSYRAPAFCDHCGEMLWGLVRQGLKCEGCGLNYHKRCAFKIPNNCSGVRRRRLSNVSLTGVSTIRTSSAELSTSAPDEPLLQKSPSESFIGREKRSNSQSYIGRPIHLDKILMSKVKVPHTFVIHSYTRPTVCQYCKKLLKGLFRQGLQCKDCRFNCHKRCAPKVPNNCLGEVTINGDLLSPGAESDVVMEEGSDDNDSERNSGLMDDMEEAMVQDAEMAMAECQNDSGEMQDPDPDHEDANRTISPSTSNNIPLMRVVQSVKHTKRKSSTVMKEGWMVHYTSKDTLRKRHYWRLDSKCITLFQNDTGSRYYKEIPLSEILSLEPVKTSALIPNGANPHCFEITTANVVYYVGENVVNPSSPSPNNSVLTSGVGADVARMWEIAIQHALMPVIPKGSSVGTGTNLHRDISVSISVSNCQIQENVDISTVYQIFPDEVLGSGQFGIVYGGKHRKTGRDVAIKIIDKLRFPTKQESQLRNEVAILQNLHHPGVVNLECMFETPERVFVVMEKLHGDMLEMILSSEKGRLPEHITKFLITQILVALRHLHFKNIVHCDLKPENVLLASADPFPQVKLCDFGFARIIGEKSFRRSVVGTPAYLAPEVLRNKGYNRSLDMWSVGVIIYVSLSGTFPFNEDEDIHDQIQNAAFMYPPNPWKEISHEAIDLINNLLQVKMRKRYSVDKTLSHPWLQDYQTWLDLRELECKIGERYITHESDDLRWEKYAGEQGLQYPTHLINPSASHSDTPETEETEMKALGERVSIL", "protocol": "as §1"}, "[32]": {"target": "PRK2(h) (Homo sapiens, UniProt Q16513)", "protocol": "as §1"}, "[33]": {"target": "Plk3(h) (Homo sapiens, UniProt Q9H4B4)", "protocol": "as §1"}, "[34]": {"target": "ROCK-I(h) (Homo sapiens, UniProt Q13464)", "protocol": "as §1"}, "[35]": {"target": "Rsk3(h) (Homo sapiens, UniProt Q15349)", "protocol": "as §1"}, "[36]": {"target": "Syk(h) (Homo sapiens, UniProt P43405)", "protocol": "as §1"}, "[37]": {"target": "ZAP-70(h) (Homo sapiens, UniProt P43403)", "protocol": "as §1"}}, "data": [{"smiles": "COc1cc(O)c2c(c1)[C@H]1O[C@@H]1C[C@H](O)[C@H](O)C(=O)/C=C\\C[C@H](C)OC2=O", "note": "[Hypothemycin, hypothemycin]", "values": [{"measurement": "remaining activity at 0.2 µM", "setting": "[1]", "value": 101, "unit": "%"}, {"measurement": "remaining activity at 0.2 µM", "setting": "[2]", "value": 100, "unit": "%"}, {"measurement": "remaining activity at 0.2 µM", "setting": "[3]", "value": 98, "unit": "%"}, {"measurement": "remaining activity at 0.2 µM", "setting": "[4]; 0.2 μM", "value": 87, "unit": "%"}, {"measurement": "remaining activity at 2 µM", "setting": "[4]; 2.0 μM", "value": 91, "unit": "%"}, {"measurement": "remaining activity at 0.2 µM", "setting": "[5]", "value": 110, "unit": "%"}, {"measurement": "remaining activity at 0.2 µM", "setting": "[6]", "value": 105, "unit": "%"}, {"measurement": "remaining activity at 0.2 µM", "setting": "[7]", "value": 103, "unit": "%"}, {"measurement": "remaining activity at 0.2 µM", "setting": "[8]", "value": 95, "unit": "%"}, {"measurement": "remaining activity at 0.2 µM", "setting": "[9]", "value": 99, "unit": "%"}, {"measurement": "remaining activity at 0.2 µM", "setting": "[10]", "value": 92, "unit": "%"}, {"measurement": "remaining activity at 0.2 µM", "setting": "[11]; 0.2 μM", "value": 106, "unit": "%"}, {"measurement": "remaining activity at 2 µM", "setting": "[11]; 2.0 μM", "value": 94, "unit": "%"}, {"measurement": "remaining activity at 0.2 µM", "setting": "[12]", "value": 87, "unit": "%"}, {"measurement": "remaining activity at 0.2 µM", "setting": "[13]", "value": 82, "unit": "%"}, {"measurement": "remaining activity at 0.2 µM", "setting": "[14]", "value": 124, "unit": "%"}, {"measurement": "remaining activity at 0.2 µM", "setting": "[15]", "value": 92, "unit": "%"}, {"measurement": "remaining activity at 0.2 µM", "setting": "[16]; 0.2 μM", "value": 6, "unit": "%"}, {"measurement": "remaining activity at 2 µM", "setting": "[16]; 2.0 μM", "value": 3, "unit": "%"}, {"measurement": "remaining activity at 0.2 µM", "setting": "[17]", "value": 97, "unit": "%"}, {"measurement": "remaining activity at 0.2 µM", "setting": "[18]; 0.2 μM", "value": 82, "unit": "%"}, {"measurement": "remaining activity at 2 µM", "setting": "[18]; 2.0 μM", "value": 83, "unit": "%"}, {"measurement": "remaining activity at 0.2 µM", "setting": "[19]; 0.2 μM", "value": 79, "unit": "%"}, {"measurement": "remaining activity at 2 µM", "setting": "[19]; 2.0 μM", "value": 10, "unit": "%"}, {"measurement": "remaining activity at 0.2 µM", "setting": "[20]; 0.2 μM", "value": 79, "unit": "%"}, {"measurement": "remaining activity at 2 µM", "setting": "[20]; 2.0 μM", "value": 5, "unit": "%"}, {"measurement": "remaining activity at 0.2 µM", "setting": "[21]; 0.2 μM", "value": 54, "unit": "%"}, {"measurement": "remaining activity at 2 µM", "setting": "[21]; 2.0 μM", "value": 8, "unit": "%"}, {"measurement": "remaining activity at 0.2 µM", "setting": "[22]", "value": 88, "unit": "%"}, {"measurement": "remaining activity at 0.2 µM", "setting": "[23]; 0.2 μM", "value": 43, "unit": "%"}, {"measurement": "remaining activity at 2 µM", "setting": "[23]; 2.0 μM", "value": 8, "unit": "%"}, {"measurement": "remaining activity at 0.2 µM", "setting": "[24]", "value": 101, "unit": "%"}, {"measurement": "remaining activity at 0.2 µM", "setting": "[25]", "value": 104, "unit": "%"}, {"measurement": "remaining activity at 0.2 µM", "setting": "[26]", "value": 98, "unit": "%"}, {"measurement": "remaining activity at 0.2 µM", "setting": "[27]", "value": 92, "unit": "%"}, {"measurement": "remaining activity at 0.2 µM", "setting": "[28]", "value": 108, "unit": "%"}, {"measurement": "remaining activity at 0.2 µM", "setting": "[29]", "value": 153, "unit": "%"}, {"measurement": "remaining activity at 0.2 µM", "setting": "[30]", "value": 102, "unit": "%"}, {"measurement": "remaining activity at 0.2 µM", "setting": "[31]; 0.2 μM", "value": 34, "unit": "%"}, {"measurement": "remaining activity at 2 µM", "setting": "[31]; 2.0 μM", "value": 6, "unit": "%"}, {"measurement": "remaining activity at 0.2 µM", "setting": "[32]", "value": 108, "unit": "%"}, {"measurement": "remaining activity at 0.2 µM", "setting": "[33]", "value": 101, "unit": "%"}, {"measurement": "remaining activity at 0.2 µM", "setting": "[34]", "value": 121, "unit": "%"}, {"measurement": "remaining activity at 0.2 µM", "setting": "[35]", "value": 94, "unit": "%"}, {"measurement": "remaining activity at 0.2 µM", "setting": "[36]", "value": 105, "unit": "%"}, {"measurement": "remaining activity at 0.2 µM", "setting": "[37]", "value": 111, "unit": "%"}]}]}
